Laboratory results reported in patent publication US8389523B2, “Substituted quinoxaline and an agrochemical composition thereof” (Kumiai Chemical Industry Co., Ltd., priority 2007, dated 2013).

Columns and labels:
Type in all cases: in vivo
Set-up in all cases: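 grade 0 to 5 of growth suppression where 5 is 90% or more and 0 below 10%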
[1] = test system: Abutilon theophrasti medicus; assay: Herbicidal effects in upland field foliar treatment (Test Example 3); conditions: criteria of Table 138; for herbicidal effect (index) on Abutilon theophrasti medicus: 1000 g active ingredient per hectare, 14th day after treatment; for herbicidal effects on Abutilon theophrasti medicus: 1000 g of the active ingredient per hectare, 14th day after the treatment, wettable powder
Description: (§1) Test Example 3 Test on Herbicidal Effects in Upland Field Foliar Treatment A 80-cm^2 plastic pot was filled with upland field soil. Seeds of Echinochloa crus-galli (L.) P. Beauv. var. crus-galli, Abutilon theophrasti medicus and Amaranthus viridis L. were sowed, and the plants were grown for two weeks in a greenhouse. A wettable powder formulation prepared according to Preparation Example 1 was diluted with water, and was sprayed with a small sprayer to perform foliar application over the entirety of plants from the upper side, in an amount equivalent to 1000 liters per hectare, such that 1000 g of the active ingredient per hectare was applied. Thereafter, the plants were grown in a greenhouse, and on the 14th day after the treatment, the herbicidal effects were investigated according to the criteria described in the Table 138 shown above.

Amaranthus viridis L. [2] = assay: as above; conditions: criteria of Table 138; for herbicidal effect (index) on Amaranthus viridis L.: 1000 g active ingredient per hectare, 14th day after treatment; for herbicidal effects on Amaranthus viridis L.: 1000 g of the active ingredient per hectare, 14th day after the treatment, wettable powder
Description: as §1

[3] = test system: Echinochloa crus-galli (L.) P. Beauv. var. crus-galli; assay: as above; conditions: criteria of Table 138; for herbicidal effect (index) on Echinochloa crus-galli (L.) P. Beauv. var. crus-galli: 1000 g active ingredient per hectare, 14th day after treatment; for herbicidal effects on Echinochloa crus-galli (L.) P. Beauv. var. crus-galli: 1000 g of the active ingredient per hectare, 14th day after the treatment, wettable powder
Description: as §1

[4] = test system: Echinochloa oryzicola Vasing; assay: Herbicidal effects in paddy field soil treatment (Test Example 1); conditions: paddy field soil treatment; 1000 g of the active ingredient per hectare; wettable powder added dropwise on water surface; 21st day after treatment
Description: (§2) Test for Herbicidal Effects in Paddy Field Soil Treatment
(§3) A 100-cm^2 plastic pot was filled with paddy field soil. After puddling and leveling, seeds of Echinochloa oryzicola Vasing, Monochoria vaginalis (Burm. f.) Presl var. plantaginea (Roxb.) Solms-Laub., and Scirpus juncoides Roxb. var. ohwianus. T. Koyama were sowed, and the soil was waterlogged to a water depth of 3 cm. On the next day, a wettable powder formulation prepared according to Preparation Example 1 was diluted with water, and was added dropwise on the water surface. The amount of application was an amount equivalent to 1000 g of the active ingredient per hectare. Thereafter, the plants were grown in a greenhouse, and on the 21st day after the treatment, the herbicidal effects were investigated according to the criteria described in Table 138.

[5] = test system: Monochoria vaginalis (Burm. f.) Presl var. plantaginea (Roxb.) Solms-Laub.; assay: as above; conditions: paddy field soil treatment; 1000 g of the active ingredient per hectare; wettable powder added dropwise on water surface; 21st day after treatment
Description: as §2, §3

[6] = test system: Scirpus juncoides Roxb. var. ohwianus. T. Koyama; assay: as above; conditions: paddy field soil treatment; 1000 g of the active ingredient per hectare; wettable powder added dropwise on water surface; 21st day after treatment
Description: as §2, §3

[7] = test system: Abutilon theophrasti medicus; assay: Herbicidal effects in upland field soil treatment (Test Example 2); conditions: 1000 g active ingredient per hectare, 21st day after treatment, criteria of Table 138
Description: (§4) Test Example 2 Test on Herbicidal Effects in Upland Field Soil Treatment A 80-cm^2 plastic pot was filled with upland field soil. Seeds of Abutilon theophrasti medicus and Amaranthus viridis L. were sowed, and soil was covered. A wettable powder formulation prepared according to Preparation Example 1 was diluted with water, and was uniformly sprayed on the soil surface with a small sprayer, in an amount equivalent to 1000 liters per hectare, such that 1000 g of the active ingredient per hectare was applied. Thereafter, the plants were grown in a greenhouse, and on the 21st day after the treatment, the herbicidal effects were investigated according to the criteria described in the Table 138 shown above.

Amaranthus viridis L. [8] = assay: as above; conditions: 1000 g active ingredient per hectare, 21st day after treatment, criteria of Table 138
Description: as §4

Structure (SMILES)	herbicidal effect (index) on Abutilon theophrasti medicus [1]	herbicidal effect (index) on Amaranthus viridis L. (Amaranthus viridis L. [2])	herbicidal effect (index) on Echinochloa crus-galli (L.) P. Beauv. var. crus-galli [3]	Herbicidal effects index, Echinochloa oryzicola Vasing [4]	Herbicidal effects index, Monochoria vaginalis (Burm. f.) Presl var. plantaginea (Roxb.) Solms-Laub. [5]	Herbicidal effects index, Scirpus juncoides Roxb. var. ohwianus. T. Koyama [6]	herbicidal effects on Abutilon theophrasti medicus [1]	herbicidal effects on Amaranthus viridis L. (Amaranthus viridis L. [2])	herbicidal effects on Echinochloa crus-galli (L.) P. Beauv. var. crus-galli [3]	herbicidal effect (index) on Abutilon theophrasti medicus [7]	herbicidal effect (index) on Amaranthus viridis L. (Amaranthus viridis L. [8])
Cn1c(=O)c(C(=O)C2=C(O)CCCC2=O)nc2ccc(S(C)(=O)=O)cc21 [I-247]	5	5	4								
COc1ccc(-n2c(=O)c(C(=O)C3=C(O)CCCC3=O)nc3cccc(Cl)c32)cc1 [II-197]				5	5	5	4	5	5		
Cc1cc(-n2c(=O)c(C(=O)C3=C(O)CCCC3=O)nc3ccccc32)ccc1F [II-214]				5	5	5	5	5	5		
CSc1ccc2nc(C(=O)C3=C(O)CCCC3=O)c(=O)n(C)c2c1 [I-243]	5	5	5								
CS(=O)(=O)CCn1c(=O)c(C(=O)C2=C(O)CCCC2=O)nc2ccccc21 [Compound I-92]	5	5	5	4	5	5					
O=C1CCCC(O)=C1C(=O)c1nc2cccnc2n(CCc2ccccc2)c1=O [III-235]				5	5	5	5	5	5		
COc1ccc(-n2c(=O)c(C(=O)C3=C(O)CCCC3=O)nc3cccc(OC)c32)cc1 [II-257]				5	5	5	4	5	5		
COc1ccc(-n2c(=O)c(C(=O)C3=C(O)CCCC3=O)nc3ccccc32)cc1F [II-178]				4	5	5	5	5	5		
CCCCCCn1c(=O)c(C(=O)C2=C(O)CCCC2=O)nc2ccccc21 [Compound I-22]	5	5	4	5	5	5					
COc1ccc2nc(C(=O)C3=C(O)CCCC3=O)c(=O)n(-c3cc(F)c(OC)c(F)c3)c2c1 [II-255]				5	5	5	4	5	5		
O=C1CCCC(O)=C1C(=O)c1nc2ccccc2n(-c2ccc(OCC3CCCO3)cc2)c1=O (centres unmarked) [II-116]				5	5	5	4	5	4		
CSc1cccc(-n2c(=O)c(C(=O)C3=C(O)CCCC3=O)nc3ccccc32)c1 [II-121]				4	5	5	4	4	4		
COc1cccc2nc(C(=O)C3=C(O)CCCC3=O)c(=O)n(-c3ccccc3)c12 [II-256]				5	5	5	4	5	5		
C#CCOc1ccc(-n2c(=O)c(C(=O)C3=C(O)CCCC3=O)nc3ccccc32)cc1 [II-84]				5	5	5	4	5	4		
CN(C)C(=O)Cn1c(=O)c(C(=O)C2=C(O)CCCC2=O)nc2ccccc21 [Compound I-100]	4	5	5								
CSCCn1c(=O)c(C(=O)C2=C(O)CCCC2=O)nc2ccccc21 [Compound I-91]	5	5	5	5	5	5					
O=C1CCCC(O)=C1C(=O)c1nc2ccccc2n(C2CCSC2)c1=O (centres unmarked) [I-136]	5	5	4								
COc1ccc(-n2c(=O)c(C(=O)C3=C(O)CCCC3=O)nc3c(Cl)cccc32)cc1 [II-194, 5-chloro-3-(2-hydroxy-6-oxo-1-cyclohexenecarbonyl)-1-(4-methoxyphenyl)-quinoxalin-2(1H)-one]				4	5	5				4	5
CC1CC(C)(C)C(O)=C(C(=O)c2nc3ccccc3n(-c3ccc4c(c3)OCCO4)c2=O)C1=O (centres unmarked) [II-230]				4	5	5				4	5
COc1ccc2nc(C(=O)C3=C(O)CCCC3=O)c(=O)n(-c3ccc(C)cc3)c2c1 [II-306]				5	5	5				5	5
Cn1nc(C(F)(F)F)nc1-n1c(=O)c(C(=O)C2=C(O)CCCC2=O)nc2ccccc21 [I-165]				5	5	5				5	5
